Data from US7399638B2, “Prediction method for lipidosis” (Takeda Pharmaceutical Company Limited, priority 2003, dated 2008).
Like-named read-outs stand apart in the source and are kept apart here. Marks after values point to notes of the source that are not given here. Each block holds one molecule with its values, some of them ahead of it.

Legend:
[1] = tested on: Crj: CD(SD)IGS rats; conditions: male, rat, in vivo, 3 days
Procedure: (§1) The following 10 kinds of commercially available drugs were examined as the test compounds for a potential of inducing PLsis by histopathological examination and peripheral blood lymphocyte testing.
(§2) The following experiments were performed using the prematurely autopsied animals.
(§3) The high-dose dosing suspension was diluted about 3 fold and 10 fold with dispersant/solvent to prepare intermediate- and low-dose dosing suspensions. […] [For LD50, the Summary Basis of Approval (FDA) for each drug was referenced to.]
(§4) The animals were examined for mortality, general conditions, body weight, food consumption and the like using PM4800 (Mettler) and EB3200D (Shimadzu Corporation).
Hematological examination was performed for parameters such as RBC count, hematocrit, hemoglobin concentration, mean corpuscular hemoglobin (MCH), mean corpuscular hemoglobin concentration (MCHC), mean corpuscular volume (MCV), platelet count, WBC count, reticulocyte count, differential WBC, and vacuolated lymphocyte ratio (for PLsis-inducing compounds only) using ADVIA120 (Bayer Medical Ltd.) and E-4000 (Sysmex Corporation).

[2] = tested on: Crj: CD(SD)IGS rats; conditions: rat, in vivo
Procedure: as §1, §2, §3, §4

[3] = tested on: male cynomolgus monkeys; assay: Urinary PAGN/hippuric acid ratio by 1H NMR in monkeys; format: in vivo, cynomolgus monkey; conditions: for Urinary PAGN/hippuric acid ratio: male cynomolgus monkey, 60 mg/kg/day by gavage for 7 days
Procedure: (§5) Subsequently, the animals were allocated to four groups (5 animals in total) comprising 2 animals in the control group and 1 male in each treatment group, respectively.
(§6) The high-dose dosing suspension was diluted with the dispersant/solvent to prepare a low-dose dosing suspension.
Pooled urine was collected from the monkeys in the Example above under fasting for about 6 hours in the pre-dosing period (Pre), on the first day of administration (Day 0), and on days 2 and 6 of treatment period (Days 2 and 6).
^1H NMR was performed as described below. Reagents were used without purification. Heavy water (D2O) was purchased from ISOTEC. […] INC (USA).
A phosphate buffer solution was prepared as described below.
Operating conditions were set as shown below.

[4] = tested on: male cynomolgus monkeys; conditions: cynomolgus monkey, in vivo, 60 mg/kg
Procedure: Amiodarone and perhexiline were purchased from SIGMA Company.
as §5, §6
After completion of the administration, livers, kidneys, hearts, spleens, lungs, mesenteric lymph nodes, eyeballs, testes and brains were collected from all animals, and examined for histopathological changes by conventional method of optical microscopy. Additionally, blood samples were collected in the pre-dosing period, on the first day of administration, and on days 2 and 6 of treatment period, blood smear specimens were prepared, and vacuolated lymphocyte ratios were determined.

[5] = tested on: Crj: CD(SD)IGS rats; assay: Urinary PAG/hippuric acid ratio by 1H NMR in rats; conditions: rat urine, 3 days, mean n = 3-4
Procedure: During the urine pooling, the collecting vessels were kept in an ice-cooled condition. After the urine collection, the urine was centrifuged at 1500×g for 10 minutes, and not less than 1 mL of the supernatant was collected and stored under freezing (below −70° C.) in a microtube in an ultralow-temperature freezer until the measurement. For the negative control group, 24-hour pooled urine was collected under ice cooling; after the urine collection, the urine was stored at −30° C. until the measurement.

[6] = tested on: Crj: CD(SD)IGS rats; conditions: rat, gavage once daily for 3 days; printed on the line of the lowest dose, dose group unclear
Procedure: Each test drug was administered by gavage at a dosing liquid volume of 10 mL/kg/day once daily for 3 days (4 days for the negative control). The animals were examined for mortality, general conditions, body weight, food consumption and the like using PM4800 (Mettler) and EB3200D (Shimadzu Corporation).

[7] = in vivo; cited from earlier work

Mean vacuolated lymphocyte ratio ([1]; 60 mg/kg/day): 2%
Mean vacuolated lymphocyte ratio ([1]; 200 mg/kg/day): 4%
Mean vacuolated lymphocyte ratio ([1]; 600 mg/kg/day): 52%
Histopathological changes (PLsis): Liver ([2]; 60 mg/kg/day): −
Histopathological changes (PLsis): Lung ([2]; 60 mg/kg/day): −
Histopathological changes (PLsis): Lymph node ([2]; 60 mg/kg/day): −
Histopathological changes (PLsis): Others ([2]; 60 mg/kg/day): −
Histopathological changes (PLsis): Spleen ([2]; 60 mg/kg/day): −
Histopathological changes (PLsis): Liver ([2]; 200 mg/kg/day): −
Histopathological changes (PLsis): Lung ([2]; 200 mg/kg/day): +
Histopathological changes (PLsis): Lymph node ([2]; 200 mg/kg/day): +
Histopathological changes (PLsis): Others ([2]; 200 mg/kg/day): −
Histopathological changes (PLsis): Spleen ([2]; 200 mg/kg/day): −
Histopathological changes (PLsis): Liver ([2]; 600 mg/kg/day): −
Histopathological changes (PLsis): Lung ([2]; 600 mg/kg/day): +
Histopathological changes (PLsis): Lymph node ([2]; 600 mg/kg/day): +
Histopathological changes (PLsis): Others ([2]; 600 mg/kg/day): −
Histopathological changes (PLsis): Spleen ([2]; 600 mg/kg/day): +
PAGN/hippuric acid ratio compared to the control group ([3]; cynomolgus monkey urine, 60 mg/kg, gavage 7 days): increased
Urinary PAGN/hippuric acid ratio ([3]; Day 0, 1 animal): 2.17
Urinary PAGN/hippuric acid ratio ([3]; Day 2, 1 animal): 1.43
Urinary PAGN/hippuric acid ratio ([3]; Day 6, 1 animal): ↑12.89
Urinary PAGN/hippuric acid ratio ([3]; Pre (pre-dosing period), 1 animal): 1.10
histopathological changes in any target organ [4]: observed
vacuolated lymphocyte ratio [4]: increase
PAG + hippuric acid/creatinine ([5]; 60 mg/kg/day by gavage): 1.47
PAG/PAG + hippuric acid ([5]; 60 mg/kg/day by gavage): 10.16%
PAG/creatinine (first term of PAG + hippuric acid) ([5]; 60 mg/kg/day by gavage): 0.15
PAG/hippuric acid ([5]; 60 mg/kg/day by gavage): 11.39%
hippuric acid/creatinine (second term of PAG + hippuric acid) ([5]; 60 mg/kg/day by gavage): 1.31
PAG + hippuric acid/creatinine ([5]; 200 mg/kg/day by gavage): 1.52
PAG/PAG + hippuric acid ([5]; 200 mg/kg/day by gavage): 15.59* %
PAG/creatinine (first term of PAG + hippuric acid) ([5]; 200 mg/kg/day by gavage): 0.24
PAG/hippuric acid ([5]; 200 mg/kg/day by gavage): 18.49%
hippuric acid/creatinine (second term of PAG + hippuric acid) ([5]; 200 mg/kg/day by gavage): 1.28
PAG + hippuric acid/creatinine ([5]; 600 mg/kg/day by gavage): 0.75*
PAG/PAG + hippuric acid ([5]; 600 mg/kg/day by gavage): 45.67* %
PAG/creatinine (first term of PAG + hippuric acid) ([5]; 600 mg/kg/day by gavage): 0.31
PAG/hippuric acid ([5]; 600 mg/kg/day by gavage): 146.97* %
hippuric acid/creatinine (second term of PAG + hippuric acid) ([5]; 600 mg/kg/day by gavage): 0.44
SMILES: C1CCC(C(CC2CCCCN2)C2CCCCC2)CC1 (stereo not shown) [Perhexiline, perhexiline]

SMILES: CN(C)CCCN1c2ccccc2CCc2ccc(Cl)cc21 [Clomipramine, clomipramine]
Mean vacuolated lymphocyte ratio ([1]; 100 mg/kg/day): 2%
Mean vacuolated lymphocyte ratio ([1]; 300 mg/kg/day): 30%
Mean vacuolated lymphocyte ratio ([1]; 1000 mg/kg/day): 38%
Histopathological changes (PLsis): Liver ([2]; 100 mg/kg/day): −
Histopathological changes (PLsis): Lung ([2]; 100 mg/kg/day): −
Histopathological changes (PLsis): Lymph node ([2]; 100 mg/kg/day): −
Histopathological changes (PLsis): Others ([2]; 100 mg/kg/day): −
Histopathological changes (PLsis): Spleen ([2]; 100 mg/kg/day): −
Histopathological changes (PLsis): Liver ([2]; 300 mg/kg/day): −
Histopathological changes (PLsis): Lung ([2]; 300 mg/kg/day): +
Histopathological changes (PLsis): Lymph node ([2]; 300 mg/kg/day): +
Histopathological changes (PLsis): Others ([2]; 300 mg/kg/day): −
Histopathological changes (PLsis): Spleen ([2]; 300 mg/kg/day): −
Histopathological changes (PLsis): Liver ([2]; 1000 mg/kg/day): +
Histopathological changes (PLsis): Lung ([2]; 1000 mg/kg/day): −
Histopathological changes (PLsis): Lymph node ([2]; 1000 mg/kg/day): +
Histopathological changes (PLsis): Others ([2]; 1000 mg/kg/day): Kidney
Histopathological changes (PLsis): Spleen ([2]; 1000 mg/kg/day): −
death (note beside the dose) [6]: (death)
LD50 [7]: 914 mg/kg
PAG + hippuric acid/creatinine ([5]; 100 mg/kg/day by gavage): 1.42
PAG/PAG + hippuric acid ([5]; 100 mg/kg/day by gavage): 14.27%
PAG/creatinine (first term of PAG + hippuric acid) ([5]; 100 mg/kg/day by gavage): 0.20
PAG/hippuric acid ([5]; 100 mg/kg/day by gavage): 16.79%
hippuric acid/creatinine (second term of PAG + hippuric acid) ([5]; 100 mg/kg/day by gavage): 1.22
PAG + hippuric acid/creatinine ([5]; 300 mg/kg/day by gavage): 0.74*
PAG/PAG + hippuric acid ([5]; 300 mg/kg/day by gavage): 33.36* %
PAG/creatinine (first term of PAG + hippuric acid) ([5]; 300 mg/kg/day by gavage): 0.20
PAG/hippuric acid ([5]; 300 mg/kg/day by gavage): 62.72* %
hippuric acid/creatinine (second term of PAG + hippuric acid) ([5]; 300 mg/kg/day by gavage): 0.52
